Test: stability of the new salt form on longer heating at increased temperatures
Type: physicochemical

stability (decomposition on heating): does not decompose
Structure (SMILES): CCCCC1=NC2(CCCC2)C(=O)N1Cc1ccc(-c2ccccc2-c2nnn[nH]2)cc1.Cl [2-butyl-1-[2′-(1H-tetrazol-5-yl)bifenyl-4-yl-methyl]spiro[2-imidazoline-4.1′-cyclopentane]-5-one hydrochloride]

Source: patent publication US20080306128A1, “Preparation of Hydrochloride Salts of Tetrazole Derivative” (priority 2004, published 2008)
